Assay [1] can be described thus: Activity at NET in rat synaptosomes obtained from whole brain minus striatum and cerebellum assessed as release of [3H]MPP+ by liquid scintillation counting method. It counts as subcellular.
Assay [2] is filed under the species Rattus norvegicus. Briefly: Selectivity ratio of EC50 for DAT in rat synaptosomes to EC50 for SERT in rat synaptosomes. It counts as subcellular.
The species entered for assay [3] is Rattus norvegicus. The experiment in a line: Selectivity ratio of EC50 for NET in rat synaptosomes to EC50 for SERT in rat synaptosomes. Type of assay: subcellular.
The target in assay [4] is T1, 5-hydroxytryptamine receptor 2A (Homo sapiens, UniProt P28223). Briefly: Agonist activity at human 5-HT2A receptor expressed in HEK293 cells assessed as induction of calcium mobilization incubated for 15 mins by calcium 5 dye-based fluorescence assay. Type of assay: cell-based. (In general: Calcium flux is commonly read through the fluorescence of an indicator in the cells.)
T1 sequence (P28223 whole entry): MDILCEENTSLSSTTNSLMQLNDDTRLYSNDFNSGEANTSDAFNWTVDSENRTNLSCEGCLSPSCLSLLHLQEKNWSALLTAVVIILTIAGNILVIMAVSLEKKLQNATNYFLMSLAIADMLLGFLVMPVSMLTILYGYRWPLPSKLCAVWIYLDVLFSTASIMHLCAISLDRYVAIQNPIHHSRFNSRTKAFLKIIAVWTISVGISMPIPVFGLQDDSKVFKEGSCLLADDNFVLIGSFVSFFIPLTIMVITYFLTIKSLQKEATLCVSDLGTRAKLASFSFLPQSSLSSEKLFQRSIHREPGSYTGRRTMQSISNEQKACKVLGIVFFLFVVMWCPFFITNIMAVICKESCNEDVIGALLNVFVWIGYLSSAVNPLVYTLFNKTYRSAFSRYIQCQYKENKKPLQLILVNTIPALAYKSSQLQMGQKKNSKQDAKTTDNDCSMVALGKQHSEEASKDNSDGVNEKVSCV

In assay [5] the target is Sodium-dependent serotonin transporter (Rattus norvegicus, UniProt P31652). Briefly: Activity at SERT in rat synaptosomes obtained from whole brain minus striatum and cerebellum assessed as release of [3H]5-HT by liquid scintillation counting method. Type of assay: subcellular.
Chain of Sodium-dependent serotonin transporter (P31652 whole entry): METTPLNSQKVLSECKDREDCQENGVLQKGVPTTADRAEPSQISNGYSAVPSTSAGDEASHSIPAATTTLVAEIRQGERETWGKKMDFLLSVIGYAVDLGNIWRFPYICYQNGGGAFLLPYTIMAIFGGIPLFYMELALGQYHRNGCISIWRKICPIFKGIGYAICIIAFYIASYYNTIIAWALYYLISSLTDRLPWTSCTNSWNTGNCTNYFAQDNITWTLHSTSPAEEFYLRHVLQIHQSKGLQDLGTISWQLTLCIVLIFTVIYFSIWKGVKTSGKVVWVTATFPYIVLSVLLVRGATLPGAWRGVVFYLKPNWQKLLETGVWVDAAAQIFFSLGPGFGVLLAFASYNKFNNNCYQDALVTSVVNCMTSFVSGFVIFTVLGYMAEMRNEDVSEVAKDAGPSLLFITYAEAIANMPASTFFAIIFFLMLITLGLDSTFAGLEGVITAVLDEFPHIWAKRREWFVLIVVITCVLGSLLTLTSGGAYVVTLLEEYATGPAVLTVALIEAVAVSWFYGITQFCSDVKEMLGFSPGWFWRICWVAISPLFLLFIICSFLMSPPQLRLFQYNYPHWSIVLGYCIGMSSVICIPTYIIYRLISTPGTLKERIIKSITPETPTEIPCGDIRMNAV
For assay [6], the species on record is Rattus norvegicus. The experiment in a line: Selectivity ratio of EC50 for DAT in rat synaptosomes to EC50 for NET in rat synaptosomes. It counts as subcellular.
Assay [7] is filed under the species Rattus norvegicus. The experiment in a line: Selectivity ratio of EC50 for NET in rat synaptosomes to EC50 for DAT in rat synaptosomes. Type of assay: subcellular.
Assay [8] deals with T2, 5-hydroxytryptamine receptor 2C (Homo sapiens, UniProt P28335).
T2 sequence (P28335 whole entry): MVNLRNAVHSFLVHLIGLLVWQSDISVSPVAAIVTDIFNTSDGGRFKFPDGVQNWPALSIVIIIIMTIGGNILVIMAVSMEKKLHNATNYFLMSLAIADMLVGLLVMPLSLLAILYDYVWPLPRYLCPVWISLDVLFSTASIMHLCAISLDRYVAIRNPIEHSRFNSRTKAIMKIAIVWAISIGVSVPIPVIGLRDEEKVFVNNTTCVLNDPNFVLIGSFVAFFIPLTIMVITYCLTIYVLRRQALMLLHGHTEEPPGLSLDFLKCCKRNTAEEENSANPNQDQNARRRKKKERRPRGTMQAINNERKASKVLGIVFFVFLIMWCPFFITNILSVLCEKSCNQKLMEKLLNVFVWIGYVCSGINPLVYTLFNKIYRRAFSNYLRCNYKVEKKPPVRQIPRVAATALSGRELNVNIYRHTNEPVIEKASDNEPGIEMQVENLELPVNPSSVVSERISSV
Briefly: Agonist activity at human 5-HT2C receptor expressed in HEK293 cells assessed as induction of calcium mobilization incubated for 15 mins by calcium 5 dye-based fluorescence assay. Type of assay: functional, cell-based.

The target in assay [9] is T1, 5-hydroxytryptamine receptor 2A. The experiment in a line: Agonist activity at human 5-HT2A receptor expressed in HEK293 cells by [3H]-inositol phosphate accumulation assay. Type of assay: cell-based.
Assay [10] deals with 5-hydroxytryptamine receptor 2B (Homo sapiens, UniProt P41595). The experiment in a line: Agonist activity at human 5-HT2B receptor expressed in HEK293 cells by [3H]-inositol phosphate accumulation assay. It counts as cell-based.
Chain of 5-hydroxytryptamine receptor 2B (P41595 whole entry): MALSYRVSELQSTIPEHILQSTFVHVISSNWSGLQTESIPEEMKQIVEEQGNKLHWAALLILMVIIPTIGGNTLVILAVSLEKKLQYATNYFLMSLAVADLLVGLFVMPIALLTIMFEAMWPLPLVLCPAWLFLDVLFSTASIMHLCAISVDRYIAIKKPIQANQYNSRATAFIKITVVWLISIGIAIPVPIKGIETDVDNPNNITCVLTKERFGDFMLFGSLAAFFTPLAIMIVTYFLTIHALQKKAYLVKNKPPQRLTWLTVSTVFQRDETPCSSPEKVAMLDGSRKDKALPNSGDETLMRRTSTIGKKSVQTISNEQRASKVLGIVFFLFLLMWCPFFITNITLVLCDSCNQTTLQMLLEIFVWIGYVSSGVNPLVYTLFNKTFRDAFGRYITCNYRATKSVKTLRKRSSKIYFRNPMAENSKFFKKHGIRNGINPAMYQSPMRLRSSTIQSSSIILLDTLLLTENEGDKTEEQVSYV
In assay [11] the target is T2, 5-hydroxytryptamine receptor 2C. The experiment in a line: Agonist activity at human 5-HT2C receptor expressed in HEK293 cells by [3H]-inositol phosphate accumulation assay. Type of assay: functional, cell-based.
Assay [12] deals with T3, 5-hydroxytryptamine receptor 2C (Homo sapiens) (UniProt P28335).
T3 sequence (whole entry): T2 sequence (P28335 whole entry)
The experiment in a line: Agonist activity at human 5-HT2C receptor expressed in HEK293 cells by [3H]-inositol phosphate accumulation assay relative to 5-HT. Type of assay: functional, cell-based.

Structures are written as SMILES.

For the compound `C[C@H](N)C/C=C/c1ccccc1`, the EC50 in assay [1] worked out at 138 nM. The Ratio EC50 worked out at 5 in the assay listed under Rattus norvegicus [2] and 3.5 in the assay filed under Rattus norvegicus [3].
Regarding `C[C@@H](N)C/C=C/c1ccccc1`, the results for the EC50 in [1] and in assay [4] were 279 nM and more than 10000 nM, respectively. Moreover, the Ratio EC50 in the assay filed under Rattus norvegicus [2] stood at 5.
In the same order, the values of `C[C@@H](N)CC#Cc1ccccc1` are 496 nM, more than 10000 nM and 2.3.
`CC(N)C/C=C\c1ccccc1` (racemic): in assay [1], the EC50 came to 621 nM. Also, in the assay filed under Rattus norvegicus [2], the Ratio EC50 is 1.4.
As for `CC(N)/C=C\c1ccccc1` (stereo not drawn), the EC50 is more than 10000 nM in assay [5] and 301 nM in [1]. Moreover, the Ratio EC50 in the assay listed under Rattus norvegicus [6] came to 3.7.
Turning to `CC(N)CC#Cc1ccccc1` (racemic), the EC50 in assay [1] is 2980 nM. Besides, the figures for the Ratio EC50 in the assay filed under Rattus norvegicus [2] and in the assay listed under Rattus norvegicus [7] were 2.6 and 3, respectively.
As to `C[C@H](N)CC#Cc1ccccc1`, the EC50 in assay [1] amounted to 784 nM.
For `C[C@H](N)C/C=C\c1ccccc1`, the EC50 in [5] is 663 nM; in [1], 170 nM; in [8], more than 10000 nM.
Consider `CC(N)C/C=C/c1ccccc1` (racemic), for which the EC50 in [1] was found to be 239 nM. The Ratio EC50 in the assay filed under Rattus norvegicus [2] was found to be 5.
As to `CC(N)Cc1ccc2ccccc2c1` (stereo not drawn), the EC50 in assay [9] turned out to be 466 nM; in assay [10], 40 nM; in assay [11] it was 2.3 nM. The compound also gave an Emax in assay [12] of 20%.
In the case of `C[C@@H](N)C/C=C\c1ccccc1`, the EC50 in [1] was found to be 211 nM. For the same compound, the Ratio EC50 in the assay filed under Rattus norvegicus [2] stood at 1.2; in the assay listed under Rattus norvegicus [6], 6.7.
In the case of `CC(N)/C=C/c1ccccc1` (stereo not drawn), the values for the EC50 in [5] and in [1] were more than 10000 nM and 308 nM, respectively. For the same compound, the Ratio EC50 in the assay listed under Rattus norvegicus [6] came to 2.2.

For orientation: EC50 means the concentration at which the effect is half-maximal. As usually defined, the Emax is the size of the effect at its maximum, as opposed to the concentration needed.

These data come from ChEMBL document CHEMBL3853267 (Medchemcomm, 2016).
